Results on 6 compounds are retold here after patent publication US4666897A, “Inhibition of mammalian collagenolytic enzymes by tetracyclines” (Research Foundation of State University, priority 1983, dated 1987).

The target in assay [1] is T1, rat PMNL collagenolytic activity (PMNL collagenase) (Rattus norvegicus, UniProt O88766).
T1 construct: An extract of PMNLs was prepared; from tissue; host or cells: extract of peritoneal exudate polymorphonuclear leucocytes of non-diabetic rats, elicited with glycogen
T1 sequence (O88766 102-466): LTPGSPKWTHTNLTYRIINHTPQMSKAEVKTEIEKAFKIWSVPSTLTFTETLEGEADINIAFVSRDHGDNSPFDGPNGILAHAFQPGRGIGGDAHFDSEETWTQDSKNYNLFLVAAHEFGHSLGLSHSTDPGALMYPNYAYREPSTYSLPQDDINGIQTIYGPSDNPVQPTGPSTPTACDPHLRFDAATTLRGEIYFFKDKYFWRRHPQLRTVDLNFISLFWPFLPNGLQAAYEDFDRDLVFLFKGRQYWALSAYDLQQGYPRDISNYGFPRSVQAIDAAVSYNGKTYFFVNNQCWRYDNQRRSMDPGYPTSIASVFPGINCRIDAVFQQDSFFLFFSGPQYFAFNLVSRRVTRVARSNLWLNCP
The experiment in a line: Rat PMNL collagenolytic activity in vitro (14C-collagen gel lysis). As to conditions: for Collagenolytic Activity: % ^14 C-collagen gel lyzed: PMNL extract (30 × 10^6 PMNLs per ml) + 20 ug/ml, control extract 39.0. Type of assay: biochemical. How it is done:
To test the effect of physiologic levels of minocycline (the concentration in human serum, during a therapeutic regimen, is approximately 2 ug/ml; that in the gingival crevicular fluid is 4-5 times greater; Ciancio, et. al., 1980, J. Periodontol., 51, 531-534) on mammalian collagenolytic activity in vitro, peritonealexudate polymorphomuclear leucocytes (PMNLs) were collected from 15 mole (non-diabetic) rats 4 hours after I.P. injection of 0.15% glycogen. An extract of PMNLs was prepared, 250 μl aliquots of this extract were incubated with ^14 C-glycine labeled collagen fibrils for 14 hours at 35° C. (in the presence or absence of minocycline, or EDTA, or additional CaCl2), and collagenolytic activity was measured as described by Nicoll, et al., (Experientia., 37, 315-317).
The techniques used to measure the collagenolytic enzyme activity of gingival tissue in culture, and in polymorphonuclear leucocytes (PMNLs), are those described by Golub, et. al., (J. Dent. Res., 57, 520-525 (197)8) and Nicoll, et. al., (Experimentia, 37, 315-317, (1981)) with minor modifications.

Assay [2] relates to fetal rat bones (radii and ulnae) in organ culture. The experiment in a line: PTH-induced bone resorption in organ culture (45calcium release). Type of assay: cell-based. As to conditions: for effect on PTH-enhanced bone resorption, in words: concentrations 0.2-300 μg/ml. How it is done: The technique used to assess bone resorption is based on monitoring the release of radioactive calcium, previously incorporated by embryonic bones in vivo, during organ culture. Pregnant Sprague-Dawley rats were injected subcutaneously with 200 μCi of ^45 calcium chloride on the 18th day of gestation. The following day, the animals were killed, the fetuses removed, and the radii and ulnae dissected under aseptic conditions. […] The bones were then randomly distributed and each bone, either a radius or ulna, was incubated in 0.5 ml of culture media alone or in a media containing parathyroid hormone (PTH: human synthetic 1-34 peptide, Beckman Instruments, Inc., Palo Alto, California) added in a final concentration of 1.0 μg/ml; the experimental bones were incubated in the PTH containing medium to which was added different concentrations (0.2-300 μg/ml) of the antibiotics to be tested. The bones were cultured for 5 days, with the media being changed after day 2, and the incubation terminated. The bones were decalcified in 0.2 ml of 5% trichloroacetic acid and the ^45 calcium content of the residual bones and of the culture media was measured as described previously. (Werner and Raisz, Endocrinology, 90, 752 (1972 ) and Gomes, et. al., Calc. Tiss. Res., 19, 285 (1976)). The ^45 calcium released into the media was calculated as a percentage of the total radioactive calcium measured in the bones.

On to `C[C@H]1c2cccc(O)c2C(O)=C2C(=O)[C@]3(O)C(O)=C(C(N)=O)C(=O)[C@@H](N(C)C)[C@@H]3[C@@H](O)[C@@H]21` [doxycycline, Doxycycline], for which, in assay [1] (Table 2), the “Collagenolytic Activity: % ^14 C-collagen gel lyzed” value was 4.5%. Also, the “^45 Calcium in Fetal Bone Released into Media (%) after 2 days incubation” value (from here on “^45 Calcium … (%) after 2 days incubation”) in assay [2] (Table 4, first column, PTH + 0.2 μg/ml) worked out at 56.6 ± 2.0%; in assay [2] (Table 4, first column, PTH + 2.0 μg/ml), 57.5 ± 2.5%; in assay [2] (Table 4, first column, PTH + 20 μg/ml) it was 30.6 ± 1.7%; in assay [2] (Table 4, first column, PTH + 200 μg/ml), 18.8 ± 1.1%; in assay [2] (Table 4, second column, PTH + 0.2 μg/ml), 97.1 ± 0.7%; in assay [2] (Table 4, second column, PTH + 2.0 μg/ml), 93.5 ± 1.7%. Moreover, the “^45 Calcium … (%) after 2 days incubation” value in assay [2] (Table 4, second column, PTH + 20 μg/ml) was 35.3 ± 1.6%; in assay [2] (Table 4, second column, PTH + 200 μg/ml), 28.7 ± 0.8%. In addition, the “effect on PTH-enhanced bone resorption, in words” value in assay [2] is “inhibited bone resorption in a dose responsive manner”.
For the compound `Cc1nnc(SCC2=C(C(=O)O)N3C(=O)[C@@H](NC(=O)Cn4cnnn4)[C@H]3SC2)s1` [cefazolin], in assay [1] (Table 2), the “effect on PMNL collagenolytic activity, in words” value was “ineffective”. The “Collagenolytic Activity: % ^14 C-collagen gel lyzed” value in assay [1] (Table 2) stood at 50.0%. Besides, the “^45 Calcium … (%) after 2 days incubation” value in assay [2] (Table 5, PTH + 6 μg/ml) is listed as 50.8 ± 1.3%; in assay [2] (Table 5, PTH + 20 μg/ml), 54.2 ± 1.4%; in assay [2] (Table 5, PTH + 60 μg/ml), 54.5 ± 1.2%; in assay [2] (Table 5, PTH + 120 μg/ml), 50.3 ± 3.1%; in assay [2] (Table 5, PTH + 200 μg/ml), 50.9 ± 1.3%. In addition, the “^45 Calcium in fetal bone Released into media (%) after 5 days incubation” value in assay [2] (Table 5, PTH + 6 μg/ml) is recorded as 93.1 ± 0.5%; in assay [2] (Table 5, PTH + 20 μg/ml), 93.6 ± 0.4%; in assay [2] (Table 5, PTH + 60 μg/ml), 94.6 ± 1.2%; in assay [2] (Table 5, PTH + 120 μg/ml) it was 90.2 ± 3.1%; in assay [2] (Table 5, PTH + 200 μg/ml), 92.1 ± 0.6%. In addition, in assay [2], the “effect on PTH-enhanced bone resorption, in words” value was “no detectable effect”.
Take “PTH: parathyroid hormone, human synthetic 1-34 peptide, Beckman Instruments, final concentration 1.0 μg/ml”: in assay [2] (PTH 1.0 μg/ml versus culture media alone, Tables 3-5), the “increase of the loss of radiolabeled calcium by addition of PTH” value is 90-160%. Further, the “^45 Calcium … (%) after 2 days incubation” value in assay [2] (Table 3, PTH alone 1.0 μg/ml, no addition 19.9 ± 1.5) was 46.1 ± 1.9%; in assay [2] (Table 4, PTH alone, no addition 27.1 ± 1.0), 61.6 ± 1.2%; in assay [2] (Table 4, PTH alone, no addition 50.8 ± 1.8), 97.9 ± 0.7%; in assay [2] (Table 5, PTH alone, no addition 22.4 ± 0.7) it was 51.2 ± 1.4%. The “^45 Calcium in fetal bone Released into media (%) after 5 days incubation” value in assay [2] (Table 3, PTH alone 1.0 μg/ml, no addition 27.6 ± 1.3) worked out at 73.3 ± 1.3%; in assay [2] (Table 5, PTH alone, no addition 46.7 ± 3.0), 91.9 ± 1.7%.
Take `CN(C)[C@@H]1C(=O)C(C(N)=O)=C(O)[C@@]2(O)C(=O)C3=C(O)c4c(O)cccc4[C@@](C)(O)[C@H]3[C@H](O)[C@@H]12` [Terramycin, Oxytetracycline]: in assay [1] (Table 2), the “Collagenolytic Activity: % ^14 C-collagen gel lyzed” value was determined as 4.4%.
With `O=C(O)CN(CCN(CC(=O)O)CC(=O)O)CC(=O)O` [EDTA], in assay [1] (Table 1), the “effect on PMNL collagenolytic (collagenase) activity, in words” value is “completely inihibited”. In addition, in assay [1] (Table 1, PMNL extract + 54 mM, control extract 85.5), the “Collagenolytic Activity: % ^14 C-collagen gel lysed” value came out at 3.1%.
Take `[H]/N=C(/N)N[C@H]1[C@H](O)[C@@H](O)[C@H](O[C@@H]2O[C@@H](C)[C@](O)(C=O)[C@H]2O[C@@H]2O[C@@H](CO)[C@H](O)[C@@H](O)[C@@H]2NC)[C@@H](N/C(N)=N\[H])[C@@H]1O` [streptomycin]: the “effect on PTH-enhanced bone resorption, in words” value in assay [2] is recorded as “no detectable effect”.
